Test results from PubChem BioAssay AID2060610 (Molecular Pharmacology Branch, DTP, NCI, 2025).
Values joined by “and” are separate entries in the source; they are usually repeats but may differ in a detail not shown here. Equal entries are not always repeated.

System: 616215-338-R-J1-PDC complex spheroids, viability % test/control
Experiment: Anticancer human tumor 616215-338-R-J1-PDC patient-derived colon adenocarcinoma cell line growth inhibition [CLK]
Conditions: for viability, T/C: stronger effect = lower value
In short: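 Multi-cell-type spheroids combined patient-derived tumor cells with HUVEC endothelial cells and human mesenchymal stem cells. Paired agents were dosed in half-log steps down from about clinical Cmax, or from 10 microM where Cmax was unknown.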

[1] = curve of first compound, second compound 0.0316 µM
[2] = curve of first compound, second compound 0.1 µM
[3] = curve of first compound, second compound 0.316 µM
[4] = curve of first compound, second compound 1 µM
[5] = curve of first compound, second compound 3.16 µM
[6] = curve of first compound, second compound 10 µM
[7] = second compound 0.0316 µM, first compound 0.0316 µM
[8] = second compound 0.0316 µM, first compound 0.1 µM
[9] = second compound 0.0316 µM, first compound 0.316 µM
[10] = second compound 0.0316 µM, first compound 1 µM
[11] = second compound 0.0316 µM, first compound 3.16 µM
[12] = second compound 0.0316 µM, first compound 10 µM
[13] = second compound 0.1 µM, first compound 0.0316 µM
[14] = second compound 0.1 µM, first compound 0.1 µM
[15] = second compound 0.1 µM, first compound 0.316 µM
[16] = second compound 0.1 µM, first compound 1 µM
[17] = second compound 0.1 µM, first compound 3.16 µM
[18] = second compound 0.1 µM, first compound 10 µM
[19] = second compound 0.316 µM, first compound 0.0316 µM
[20] = second compound 0.316 µM, first compound 0.1 µM
[21] = second compound 0.316 µM, first compound 0.316 µM
[22] = second compound 0.316 µM, first compound 1 µM
[23] = second compound 0.316 µM, first compound 3.16 µM
[24] = second compound 0.316 µM, first compound 10 µM
[25] = second compound 1 µM, first compound 0.0316 µM
[26] = second compound 1 µM, first compound 0.1 µM
[27] = second compound 1 µM, first compound 0.316 µM
[28] = second compound 1 µM, first compound 1 µM
[29] = second compound 1 µM, first compound 3.16 µM
[30] = second compound 1 µM, first compound 10 µM
[31] = second compound 3.16 µM, first compound 0.0316 µM
[32] = second compound 3.16 µM, first compound 0.1 µM
[33] = second compound 3.16 µM, first compound 0.316 µM
[34] = second compound 3.16 µM, first compound 1 µM
[35] = second compound 3.16 µM, first compound 3.16 µM
[36] = second compound 3.16 µM, first compound 10 µM
[37] = second compound 10 µM, first compound 0.0316 µM
[38] = second compound 10 µM, first compound 0.1 µM
[39] = second compound 10 µM, first compound 0.316 µM
[40] = second compound 10 µM, first compound 1 µM
[41] = second compound 10 µM, first compound 3.16 µM
[42] = second compound 10 µM, first compound 10 µM
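Also: spheroids exposed to agents for 7 days.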
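For viability, T/C in this document: 100% = DMSO vehicle wells.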

For Nc1ccn(C2OC(CO)C(O)C2(F)F)c(=O)n1 (stereo not drawn) + CN1CCN(c2cc(C(=O)Nc3cc4cc(-c5cnn(C)c5)ccc4cn3)ccn2)CC1, the IC50 [1] was under 31.6 nM, the IC50 [2] was under 31.6 nM and the IC50 [3] was under 31.6 nM. It also gave an IC50 [4] of under 31.6 nM, an IC50 [5] of under 31.6 nM and an IC50 [6] of under 31.6 nM. It also gave a viability, T/C [7] of 15.5%, a viability, T/C [8] of 10.3% and a viability, T/C [9] of 14.1%. The viability, T/C [10] was 13.6%, the viability, T/C [11] was 14.3% and the viability, T/C [12] was 12.7%. The viability, T/C [13] was 18%, the viability, T/C [14] was 14.5% and the viability, T/C [15] was 14%. For the same compound, the viability, T/C [16] was 14.3%, the viability, T/C [17] was 17% and the viability, T/C [18] was 18%. It also gave a viability, T/C [19] of 13.8%, a viability, T/C [20] of 11% and a viability, T/C [21] of 13.8%. It also gave a viability, T/C [22] of 10.6%, a viability, T/C [23] of 12.1% and a viability, T/C [24] of 13.3%. For the same compound, the viability, T/C [25] was 0.1%, the viability, T/C [26] was 0.13% and the viability, T/C [27] was 2.94%. It also gave a viability, T/C [28] of 0.12%, a viability, T/C [29] of 1.83% and a viability, T/C [30] of 1.85%. It also gave a viability, T/C [31] of 0.1%, a viability, T/C [32] of 0.13% and a viability, T/C [33] of 0.14%. The viability, T/C [34] was 0.09%, the viability, T/C [35] was 0.1% and the viability, T/C [36] was 0.11%. The viability, T/C [37] was 0.15%, the viability, T/C [38] was 1.73% and the viability, T/C [39] was 0.16%. For the same compound, the viability, T/C [40] was 2%, the viability, T/C [41] was 3.33% and the viability, T/C [42] was 0.18%.

With C=C(F)C(=O)N1CCN(c2nc(OCC3CCCN3C)nc3c2CCN(c2cccc4cccc(Cl)c24)C3)CC1CC#N (stereo not drawn) the viability, T/C (compound 0.0316 µM) was 101% and 104%, the viability, T/C (compound 0.1 µM) was 99.9% and 107% and the viability, T/C (compound 0.316 µM) was 96.3% and 110%. The viability, T/C (compound 1 µM) was 93.6% and 106%, the viability, T/C (compound 3.16 µM) was 116% and 114% and the viability, T/C (compound 10 µM) was 9.79% and 0.24%. The IC50 (curve of compound) was 6030 nM and 5890 nM.

For CC(CO)NC(=O)c1cc(-c2ccc(Cl)cc2)nn(-c2cnn(C)c2)c1=O (stereo not drawn) + CN1CCN(c2cc(C(=O)Nc3cc4cc(-c5cnn(C)c5)ccc4cn3)ccn2)CC1, the IC50 [1] was over 10000 nM, the IC50 [2] was over 10000 nM and the IC50 [3] was under 31.6 nM. For the same compound, the IC50 [4] was under 31.6 nM, the IC50 [5] was under 31.6 nM and the IC50 [6] was under 31.6 nM. For the same compound, the viability, T/C [7] was 104%, the viability, T/C [8] was 89.5% and the viability, T/C [9] was 91.5%. For the same compound, the viability, T/C [10] was 91.6%, the viability, T/C [11] was 93% and the viability, T/C [12] was 100%. The viability, T/C [13] was 94.7%, the viability, T/C [14] was 108% and the viability, T/C [15] was 90.6%. It also gave a viability, T/C [16] of 93.6%, a viability, T/C [17] of 97.3% and a viability, T/C [18] of 85.7%. The viability, T/C [19] was 31.3%, the viability, T/C [20] was 41.5% and the viability, T/C [21] was 26.3%. For the same compound, the viability, T/C [22] was 27.7%, the viability, T/C [23] was 33.1% and the viability, T/C [24] was 32.4%. For the same compound, the viability, T/C [25] was 0.18%, the viability, T/C [26] was 0.19% and the viability, T/C [27] was 0.23%. The viability, T/C [28] was 0.14%, the viability, T/C [29] was 0.57% and the viability, T/C [30] was 1.49%. The viability, T/C [31] was 0.15%, the viability, T/C [32] was 0.42% and the viability, T/C [33] was 0.16%. It also gave a viability, T/C [34] of 1.94%, a viability, T/C [35] of 2.32% and a viability, T/C [36] of 0.14%. The viability, T/C [37] was 1.31%, the viability, T/C [38] was 0.25% and the viability, T/C [39] was 0.22%. It also gave a viability, T/C [40] of 0.24%, a viability, T/C [41] of 1.28% and a viability, T/C [42] of 0.23%.

With C=CC(=O)Nc1cc(Nc2nccc(-c3cn(C)c4ccccc34)n2)c(OC)cc1N(C)CCN(C)C the viability, T/C (compound 0.000949 µM) was 108% and 95%, the viability, T/C (compound 0.003 µM) was 93.5% and 105% and the viability, T/C (compound 0.00949 µM) was 107% and 85.4%. For the same compound, the viability, T/C (compound 0.03 µM) was 95.3% and 86.5%, the viability, T/C (compound 0.0949 µM) was 134% and 90.5% and the viability, T/C (compound 0.3 µM) was 100% and 111%. The IC50 (curve of compound) was over 300 nM.
